Measurements: ChEMBL document CHEMBL5331046, “Disulfiram and dithiocarbamate analogues demonstrate promising antischistosomal effects” (Eur J Med Chem, 2022)
Active and inactive are the calls of the source. The calls are words filed in the database; no cut-off is given here.

Legend:
LS174T [1] = experiment: Cytotoxicity against human LS174T cells assessed as reduction in cell viability at 100 uM by WST-1 assay; assay type: toxicity, cell-based
HepG2 [2] = experiment: Cytotoxicity against human HepG2 cells assessed as reduction in cell vaibility at 100 uM by WST-1 assay; assay type: toxicity, cell-based; details: hepg2, 100 µM
Schistosoma mansoni [3] = experiment: Antischistosomal activity against Schistosoma mansoni couples at 100 uM measured upto 72 hrs by bright field microscopy; assay type: functional, organism-based
Schistosoma mansoni [4] = experiment: Antischistosomal activity against Schistosoma mansoni couples at >=50 uM measured upto 72 hrs by bright field microscopy; assay type: functional, organism-based
Schistosoma mansoni [5] = experiment: Antischistosomal activity against Schistosoma mansoni couples assessed as decrease in parasite motility at 100 uM measured upto 72 hrs by bright field microscopy; assay type: functional
Schistosoma mansoni [6] = experiment: Antischistosomal activity against Schistosoma mansoni couples assessed as gut dilations at 100 uM measured upto 72 hrs by bright field microscopy; assay type: functional, organism-based
Schistosoma mansoni [7] = experiment: Antischistosomal activity against Schistosoma mansoni couples at 25 uM measured upto 72 hrs by bright field microscopy; assay type: functional, organism-based
Schistosoma mansoni [8] = experiment: Antischistosomal activity against Schistosoma mansoni couples assessed as inhibition of eggs production at 100 uM measured upto 72 hrs by bright field microscopy; assay type: functional; parameters: scale not given: the % may be the effect or the level left
Schistosoma mansoni [9] = experiment: Antischistosomal activity against Schistosoma mansoni couples assessed as reduction in pairing stability at 100 uM measured upto 72 hrs by bright field microscopy; assay type: functional; parameters: scale not given: the % may be the effect or the level left
LS174T [10] = experiment: Cytotoxicity against human LS174T cells assessed as reduction in cell vaibility at 50 uM by WST-1 assay; assay type: toxicity, cell-based
Schistosoma mansoni [11] = experiment: Antischistosomal activity against Schistosoma mansoni couples assessed as decrease in parasite motility at 50 uM measured upto 72 hrs by bright field microscopy; assay type: functional; parameters: scale not given: the % may be the effect or the level left
Schistosoma mansoni [12] = experiment: Antischistosomal activity against Schistosoma mansoni couples assessed as tegument damage at 100 uM measured upto 72 hrs by bright field microscopy; assay type: functional, organism-based
HepG2 [13] = experiment: Cytotoxicity against human HepG2 cells assessed as reduction in cell vaibility at 50 uM by WST-1 assay; assay type: toxicity, cell-based; details: hepg2, 50 µM
Schistosoma mansoni [14] = experiment: Antischistosomal activity against Schistosoma mansoni couples assessed as detachment of worms from culture dish at 100 uM measured upto 72 hrs by bright field microscopy; assay type: functional, organism-based
Schistosoma mansoni [15] = experiment: Antischistosomal activity against Schistosoma mansoni couples assessed as gut dilations at 50 uM measured upto 72 hrs by bright field microscopy; assay type: functional, organism-based
Schistosoma mansoni [16] = experiment: Antischistosomal activity against Schistosoma mansoni couples at 10 uM measured upto 72 hrs by bright field microscopy; assay type: functional, organism-based
LS174T [17] = experiment: Cytotoxicity against human LS174T cells assessed as reduction in cell vaibility upto 100 uM by WST-1 assay; assay type: toxicity, cell-based
HepG2 [18] = experiment: Cytotoxicity against human HepG2 cells assessed as reduction in cell viability upto 100 uM by WST-1 assay; assay type: toxicity, cell-based; details: hepg2, 100 µM
Schistosoma mansoni [19] = experiment: Antischistosomal activity against Schistosoma mansoni couples assessed as inhibition of eggs production at 15 uM measured upto 72 hrs by bright field microscopy; assay type: functional; parameters: scale not given: the % may be the effect or the level left
Schistosoma mansoni [20] = experiment: Antischistosomal activity against Schistosoma mansoni couples assessed as decrease in parasite motility at 10 uM measured upto 72 hrs by bright field microscopy; assay type: functional, organism-based
Schistosoma mansoni [21] = experiment: Antischistosomal activity against Schistosoma mansoni couples assessed as decrease in parasite vitality at 15 uM measured upto 72 hrs by bright field microscopy; assay type: functional; parameters: scale not given: the % may be the effect or the level left
Schistosoma mansoni [22] = experiment: Antischistosomal activity against Schistosoma mansoni couples assessed as decrease in pairing stability at 15 uM measured upto 72 hrs by bright field microscopy; assay type: functional; parameters: scale not given: the % may be the effect or the level left
Schistosoma mansoni [23] = experiment: Antischistosomal activity against Schistosoma mansoni couples assessed as induction of phenotypes at 10 uM measured upto 72 hrs by bright field microscopy; assay type: functional, organism-based
Schistosoma mansoni [24] = experiment: Antischistosomal activity against Schistosoma mansoni couples assessed as decrease in parasite motility at 15 uM measured upto 72 hrs by bright field microscopy; assay type: functional; parameters: scale not given: the % may be the effect or the level left
Schistosoma mansoni [25] = experiment: Antischistosomal activity against Schistosoma mansoni couples assessed as eggs deformation at 100 uM measured upto 72 hrs by bright field microscopy; assay type: functional
Schistosoma mansoni [26] = experiment: Antischistosomal activity against Schistosoma mansoni couples assessed as pairing instability at 50 uM measured upto 72 hrs by bright field microscopy; assay type: functional
Schistosoma mansoni [27] = experiment: Antischistosomal activity against Schistosoma mansoni couples assessed as tegument damage upto 100 uM measured upto 72 hrs by bright field microscopy; assay type: functional, organism-based
Schistosoma mansoni [28] = experiment: Antischistosomal activity against Schistosoma mansoni couples assessed as decrease in parasite motility at 25 uM measured upto 72 hrs by bright field microscopy; assay type: functional; parameters: scale not given: the % may be the effect or the level left
Schistosoma mansoni [29] = experiment: Antischistosomal activity against Schistosoma mansoni couples assessed as induction of weak phenotypes at 25 uM measured upto 72 hrs by bright field microscopy; assay type: functional, organism-based

`CCN(CC)C(=S)SC` [METHYLDIETHYL CARBAMODITHIOATE] was tested, and the Activity (LS174T [1]) was “Non-Toxic”, the Activity (HepG2 [2]) was “Non-Toxic” and the Activity (Schistosoma mansoni [3]) was “inactive”.

For `CCCN1CCN(C(=S)SCc2ccccc2)CC1`, the Activity (Schistosoma mansoni [4]) was “Active”.

With `CN1CCN(C(=S)SCc2ccccc2)CC1` the Activity (Schistosoma mansoni [4]) was “Active”.

In the case of `S=C(SCc1ccccc1)N1CCN(/C=C/c2ccccc2)CC1`, the Activity (Schistosoma mansoni [3]) is reported as “inactive”.

`CCN(CC)C(=S)SCCc1c[nH]c2ccccc12` was tested, and the Activity (Schistosoma mansoni [5]) was “inactive” and the Activity (Schistosoma mansoni [6]) was “Active”.

For `O=C(C1CC1)N1CCN(C(=S)SCc2ccc([N+](=O)[O-])cc2)CC1`, the Activity (Schistosoma mansoni [7]) was “inactive”.

Work on `CCN(CC)C(=S)OCc1ccccc1` yielded an Activity (Schistosoma mansoni [8]) of 100% and an Activity (Schistosoma mansoni [9]) of 50%.

For `CCN(CC)C(=S)SCc1ccncc1`, the Activity (Schistosoma mansoni [3]) was “inactive”.

`Cl.S=C(SCc1ccccc1)N1CCNCC1` was tested, and the Activity (Schistosoma mansoni [5]) was “>=55%”, the Activity (LS174T [10]) was “Toxic” and the Activity (Schistosoma mansoni [11]) was ~35%. For the same compound, the Activity (Schistosoma mansoni [12]) was “Active”, the Activity (Schistosoma mansoni [6]) was “Active” and the Activity (HepG2 [13]) was “Toxic”.

`S=C(SCc1ccccc1)N1CCSCC1` was tested, and the Activity (Schistosoma mansoni [5]) was 45%, the Activity (Schistosoma mansoni [11]) was ~45% and the Activity (Schistosoma mansoni [14]) was “Active”. For the same compound, the Activity (LS174T [1]) was “Non-Toxic”, the Activity (HepG2 [2]) was “Non-Toxic” and the Activity (Schistosoma mansoni [15]) was “Active”. For the same compound, the Activity (Schistosoma mansoni [6]) was “Active”.

`CCC(CC)C(=S)SCc1ccccc1` was tested, and the Activity (Schistosoma mansoni [3]) was “Active”.

For `CCCCCN(CCCCC)C(=S)SCc1ccccc1`, the Activity (Schistosoma mansoni [3]) was “inactive”.

`CCN(CC)C(=S)SC(c1ccccc1)c1ccccc1` was tested, and the Activity (Schistosoma mansoni [9]) was “Active”.

`CCN(CC)C(=S)CCc1ccccc1` was tested, and the Activity (Schistosoma mansoni [3]) was “inactive”.

In the case of `CC(C)NC(=O)CN1CCN(C(=S)SCc2ccc([N+](=O)[O-])cc2)CC1`, the Activity (Schistosoma mansoni [7]) is reported as “Active”, the Activity (Schistosoma mansoni [3]) is reported as “Active” and the Activity (Schistosoma mansoni [16]) is reported as “inactive”.

In the case of `CCN(CC)C(=S)SCc1ccc(C)cc1`, the Activity (LS174T [17]) is reported as “Non-Toxic” and the Activity (HepG2 [18]) is reported as “Non-Toxic”.

`CCN(CC)/C(=N/C#N)NCc1ccccc1` was tested, and the Activity (Schistosoma mansoni [3]) was “inactive”.

With `O=[N+]([O-])c1ccc(CSC(=S)N2CCN(CCO)CC2)cc1` the Activity (Schistosoma mansoni [7]) was “Active”, the Activity (Schistosoma mansoni [3]) was “Active” and the Activity (Schistosoma mansoni [16]) was “inactive”.

`CCS(=O)(=O)N1CCN(C(=S)SCc2ccc([N+](=O)[O-])cc2)CC1` was tested, and the Activity (Schistosoma mansoni [19]) was 40%, the Activity (Schistosoma mansoni [20]) was “inactive” and the Activity (Schistosoma mansoni [21]) was 90%. The Activity (Schistosoma mansoni [22]) was 20%, the Activity (Schistosoma mansoni [23]) was “inactive” and the Activity (Schistosoma mansoni [24]) was 50%.

With `S=C(SCc1ccccc1)n1ccnc1` the Activity (Schistosoma mansoni [8]) was “Active” and the Activity (Schistosoma mansoni [9]) was “Active”.

`CCN(CC)C(=S)SCCC1OCCCO1` was tested, and the Activity (Schistosoma mansoni [11]) was “inactive”.

In the case of `S=C(SCc1ccccc1)n1cnnc1`, the Activity (Schistosoma mansoni [3]) is reported as “inactive”.

`CN(C)C(=S)SCc1ccccc1` was tested, and the Activity (Schistosoma mansoni [25]) was “Active” and the Activity (Schistosoma mansoni [9]) was “Active”.

`CCN(CC)C(=S)SCC(=O)O` was tested, and the Activity (Schistosoma mansoni [9]) was “Active”.

In the case of `CCN(CC)C(=S)SCCC1SCCCS1`, the Activity (Schistosoma mansoni [5]) is reported as <40%, the Activity (Schistosoma mansoni [11]) is reported as “Active” and the Activity (LS174T [17]) is reported as “Non-Toxic”. The Activity (HepG2 [18]) was “Non-Toxic”, the Activity (Schistosoma mansoni [26]) was 0% and the Activity (Schistosoma mansoni [27]) was “Active”.

In the case of `S=C(SCc1ccccc1)N1CCSC1`, the Activity (Schistosoma mansoni [14]) is reported as “Active”.

`S=C(SCc1ccccc1)N1CCCc2ccccc21` was tested, and the Activity (Schistosoma mansoni [3]) was “inactive”.

`Cl.N[C@@H](Cc1ccc(O)cc1)C(=O)N1CCN(C(=S)SCc2ccc([N+](=O)[O-])cc2)CC1` was tested, and the Activity (Schistosoma mansoni [28]) was 30% and the Activity (Schistosoma mansoni [29]) was “Active”.

`CCN(CC)C(=S)SCCCCc1ccccc1` was tested, and the Activity (Schistosoma mansoni [8]) was “Active” and the Activity (Schistosoma mansoni [9]) was “inactive”.

With `O=C(c1ccco1)N1CCN(C(=S)SCc2ccc([N+](=O)[O-])cc2)CC1` the Activity (Schistosoma mansoni [7]) was “inactive”.

With `CCN1CCN(C(=S)SCc2ccccc2)CC1` the Activity (Schistosoma mansoni [4]) was “Active”.
